Target: T1, glucokinase (GK), residues 12-465 of the human enzyme (Homo sapiens, UniProt P35557)
T1 construct: I.D. No. 1 corresponds to residues 12-465 of glucokinase; made in house; host or cells: E. coli DH10b-Tlr
T1 sequence (P35557 with tags, fused parts or gaps isoform P35557-2): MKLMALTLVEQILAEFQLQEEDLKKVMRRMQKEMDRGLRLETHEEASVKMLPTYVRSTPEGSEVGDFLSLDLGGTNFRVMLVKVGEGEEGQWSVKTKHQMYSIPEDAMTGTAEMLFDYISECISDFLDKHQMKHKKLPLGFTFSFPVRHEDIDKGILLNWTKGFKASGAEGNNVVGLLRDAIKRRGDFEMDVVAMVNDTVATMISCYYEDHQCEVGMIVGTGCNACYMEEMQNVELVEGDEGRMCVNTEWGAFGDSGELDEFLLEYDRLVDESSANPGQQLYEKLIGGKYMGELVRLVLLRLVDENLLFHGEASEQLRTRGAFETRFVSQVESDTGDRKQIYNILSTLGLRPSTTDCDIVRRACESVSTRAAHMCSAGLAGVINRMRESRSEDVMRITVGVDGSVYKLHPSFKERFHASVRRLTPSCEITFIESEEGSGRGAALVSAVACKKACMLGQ
Experiment: Enzymatic glucokinase activity assay (KinaseGlo luminescence, ATP consumption)
Type: biochemical
Conditions: 5 μM ATP, 5 mM Glucose; for EC50: GK activation, Kact = concentration giving 50% of the maximal increase in GK activity, read-out: pKact; for Emax: calculated maximal gain in GK enzyme activity at a saturating concentration of the compound, read-out: % ACTmax
From the text: The activity of compounds as glucokinase activators may be assayed in vitro, in vivo or in a cell line. Provided below is an enzymatic glucokinase activity assay.
Purified glucokinase may be obtained as follows. DNA encoding residues 12-465 of the full-length sequence of the human enzyme may be amplified by PCR and cloned into the HindIII and EcoRI sites of pFLAG-CTC (Sigma). SEQ. I.D. No. 1 corresponds to residues 12-465 of glucokinase.
The expression of recombinant glucokinase protein may be carried out by transformation and growth of DH10b-Tlr E. coli cells incorporating the (pFLAG-CTC) plasmid in LB media. Protein expression can be induced in this system by the addition of IPTG to the culture medium.
Recombinant protein may be isolated from cellular extracts by passage over Sepharose Q Fast Flow resin (Pharmacia). This partially purified GK extract may then be further purified by a second passage over Poros HQ 10 (Applied Biosystems). The purity of GK may be determined on denaturing SDS-PAGE gel. Purified GK may then be concentrated to a final concentration of 20.0 mg/ml. After flash freezing in liquid nitrogen, the proteins can be stored at −78° C. in a buffer containing 25 mM TRIS-HCl pH 7.6, 50 mM NaCl, and 0.5 mM TCEP.
The activation properties of compounds for GK may be determined using a black 384-well-plate format under the following reaction conditions: 25 mM Hepes pH 7.2, 25 mM NaCl, 10 mM MgCl2, 0.01% Brij35, 1 mM DTT, 5 μM ATP, 5 mM Glucose 2% DMSO. The amount of ATP consumed may be determined quantitatively by addition of equal volume of luciferase reagent (luciferase+beetle luciferin—KinaseGlo Luminescent Kinase Assay kit from Promega). The luminescence intensity may be measured by using the Analyst HT from LJL Biosystems.
The assay reaction may be initiated as follows: 4 μl of substrate mixture (12.5 μM ATP and 12.5 mM Glucose) was added to each well of the plate, followed by the addition of 2 μl of activator (2 fold serial dilutions for 11 data points for each activator) containing 10% DMSO. 4 μL of 1.25 nM GK solution may be added to initiate the reaction. The reaction mixture may then be incubated at room temperature for 60 min, and quenched and developed by addition of 10 μL of luciferase reagent. Luminescence intensities of the resulting reaction mixtures may be measured after a 10 min incubation at room temperature. The luminescence intensity may be measured by using the Analyst HT from LJL Biosystems.
pKact and % ACTmax values may be calculated by non-linear curve fitting of the compound concentrations and luminescence intensities to a standard inhibition/activation equation.

Compound: Cc1nc(C)c(S(=O)(=O)N2CCN([C@@H](CC3CCCCC3)C(=O)Nc3nccs3)C(=O)C2)s1 [Example 54, (S)-3-cyclohexyl-2-(4-(2,4-dimethylthiazol-5-ylsulfonyl)-2-oxopiperazin-1-yl)-N-(thiazol-2-yl)propanamide]
- EC50: ≥ 3160 nM
- Emax: ≥ 119%

Compound: COc1ccc(CNC(=S)N2CCN([C@@H](CC3CCCCC3)C(=O)Nc3nccs3)C(=O)C2)cc1 [Example 122, (S)-3-cyclohexyl-2-(4-(4-methoxybenzylcarbamothioyl)-2-oxopiperazin-1-yl)-N-(thiazol-2-yl)propanamide]
- EC50: 1580 to 2510 nM
- Emax: 74.1 to 97%

Compound: O=C(Nc1ncc(Cl)s1)C(CC1CCOCC1)N1CCN(S(=O)(=O)c2cccc(F)c2)CC1=O (centres unmarked) [Example 147, N-(5-chlorothiazol-2-yl)-2-(4-(3-fluorophenylsulfonyl)-2-oxopiperazin-1-yl)-3-(tetrahydro-2H-pyran-4-yl)propanamide]
- EC50: 794 to 1260 nM
- Emax: 108 to 119%

Compound: NC(=O)Nc1ccc(S(=O)(=O)N2CCN([C@@H](CC3CCCCC3)C(=O)Nc3nccs3)C(=O)C2)cc1 [Example 64, (S)-3-cyclohexyl-2-(2-oxo-4-(4-ureidophenylsulfonyl)piperazin-1-yl)-N-(thiazol2-yl)propanamide]
- EC50: ≥ 3160 nM
- Emax: 97.1 to 107%

Compound: COc1ccc(OC)c(S(=O)(=O)N2CCN([C@@H](CC3CCCCC3)C(=O)Nc3nccs3)C(=O)C2)c1 [Example 194, (S)-3-cyclohexyl-2-(4-(2,5-dimethoxyphenylsulfonyl)-2-oxopiperazin-1-yl)N-(thiazol-2-yl)propanamide]
- EC50: 794 to 1260 nM
- Emax: 108 to 119%

Compound: O=C(Nc1ncc(F)s1)C(CC1CCOCC1)N1CCN(S(=O)(=O)c2cccc(F)c2)CC1=O (centres unmarked) [Example 148, 2-(4-(3-fluorophenylsulfonyl)-2-oxopiperazin-1-yl)-N-(5-fluorothiazol-2-yl)-3-(tetrahydro-2H-pyran-4-yl)propanamide]
- EC50: 794 to 1260 nM
- Emax: 108 to 119%

Compound: CCc1ccc(S(=O)(=O)N2CCN([C@@H](CC3CCCCC3)C(=O)Nc3nccs3)C(=O)C2)cc1 [Example 225, (S)-3-cyclohexyl-2-(4-(4-ethylphenylsulfonyl)-2-oxopiperazin-1-yl)-N-(thiazol-2-yl)propanamide]
- EC50: 794 to 1260 nM
- Emax: 97.1 to 107%

Compound: O=C(Nc1nccs1)[C@H](CC1CCCCC1)N1CCN(C(=O)Nc2ccc3ccccc3c2)CC1=O [Example 139, (S)-4-(3-cyclohexyl-1-oxo-1-(thiazol-2-ylamino)propan-2-yl)-N-(naphthalen-2-yl)-3-oxopiperazine-1-carboxamide]
- EC50: ≥ 3160 nM
- Emax: 74.1 to 97%

Compound: Cc1cc(S(=O)(=O)N2CCN([C@@H](CC3CCCCC3)C(=O)Nc3nccs3)C(=O)C2)c(C(F)(F)F)o1 [Example 160, (S)-3-cyclohexyl-2-(4-(5-methyl-2-(trifluoromethyl)furan-3-ylsulfonyl)-2-oxopiperazin-1-yl)-N-(thiazol-2-yl)propanamide]
- EC50: 1580 to 2510 nM
- Emax: 108 to 119%

Compound: COc1ccc(S(=O)(=O)N2CCN([C@@H](CC3CCCCC3)C(=O)Nc3nccs3)C(=O)C2)cc1OC [Example 88, (S)-3-cyclohexyl-2-(4-(3,4-dimethoxyphenylsulfonyl)-2-oxopiperazin-1-yl)-N-(thiazol-2-yl)propanamide]
- EC50: ≥ 3160 nM
- Emax: 97.1 to 107%

Compound: CC(C)Oc1ccc(S(=O)(=O)N2CCN([C@@H](CC3CCCCC3)C(=O)Nc3nccs3)C(=O)C2)cc1 [Example 101, (S)-3-cyclohexyl-2-(4-(4-isopropoxyphenylsulfonyl)-2-oxopiperazin-1-yl)-N-(thiazol-2-yl)propanamide]
- EC50: ≤ 631 nM
- Emax: ≤ 74%

Compound: O=C(Nc1ncc(Cl)s1)C(CC1CCOCC1)N1CCN(S(=O)(=O)c2cccs2)CC1=O (centres unmarked) [Example 36, N-(5-chlorothiazol-2-yl)-2-(2-oxo-4-(thiophen-2-ylsulfonyl)piperazin-1-yl)-3-(tetrahydro-2H-pyran-4-yl)propanamide]
- EC50: ≤ 631 nM
- Emax: 108 to 119%

Compound: CC(C)(C)c1ccc(S(=O)(=O)N2CCN([C@@H](CC3CCCCC3)C(=O)Nc3nccs3)C(=O)C2)cc1 [Example 224, (S)-2-(4-(4-tert-butylphenylsulfonyl)-2-oxopiperazin-1-yl)-3-cyclohexyl-N-(thiazol-2-yl)propanamide]
- EC50: 794 to 1260 nM
- Emax: ≤ 74%

Compound: Cc1nc(S(=O)(=O)N2CCN([C@@H](CC3CCCCC3)C(=O)Nc3nccs3)C(=O)C2)cn1C [Example 48, (S)-3-cyclohexyl-2-(4-(1,2-dimethyl-1H-imidazol-4-ylsulfonyl)-2-oxopiperazin-1-yl)-N-(thiazol-2-yl)propanamide]
- EC50: 794 to 1260 nM
- Emax: 108 to 119%

Compound: COc1ccc(CCNC(=O)N2CCN([C@@H](CC3CCCCC3)C(=O)Nc3nccs3)C(=O)C2)cc1OC [Example 143, (S)-4-(3-cyclohexyl-1-oxo-1-(thiazol-2-ylamino)propan-2-yl)-N-(3,4-dimethoxyphenethyl)-3-oxopiperazine-1-carboxamide]
- EC50: ≥ 3160 nM
- Emax: ≥ 119%

Compound: O=C(Nc1nccs1)[C@H](CC1CCCCC1)N1CCN(S(=O)(=O)c2cccc3cccnc23)CC1=O [Example 40, (S)-3-cyclohexyl-2-(2-oxo-4-(quinolin-8-ylsulfonyl)piperazin-1-yl)-N-(thiazol-2-yl)propanamide]
- EC50: 794 to 1260 nM
- Emax: 108 to 119%

Compound: O=C(Nc1nccs1)[C@H](CC1CCCCC1)N1CCN(C(=S)NCCCN2CCOCC2)CC1=O [Example 118, (S)-3-cyclohexyl-2-(4-(3-morpholinopropylcarbamothioyl)-2-oxopiperazin-1-yl)-N-(thiazol-2-yl)propanamide]
- EC50: 1580 to 2510 nM
- Emax: 97.1 to 107%

Compound: O=C(Nc1nccs1)[C@H](CC1CCCCC1)N1CCN(S(=O)(=O)CCC(F)(F)F)CC1=O [Example 100, (S)-3-cyclohexyl-2-(2-oxo-4-(3,3,3-trifluoropropylsulfonyl)piperazin-1-yl)-N-(thiazol-2-yl)propanamide]
- EC50: 794 to 1260 nM
- Emax: ≥ 119%

Compound: Cc1noc(C)c1S(=O)(=O)N1CCN([C@@H](CC2CCCCC2)C(=O)Nc2nccs2)C(=O)C1 [Example 173, (S)-3-cyclohexyl-2-(4-(3,5-dimethylisoxazol-4-ylsulfonyl)-2-oxopiperazin-1-yl)-N-(thiazol-2-yl)propanamide]
- EC50: ≥ 3160 nM
- Emax: 74.1 to 97%

Compound: O=C(Nc1nccs1)[C@H](CC1CCCCC1)N1CCN(S(=O)(=O)c2cc(F)c(Cl)cc2F)CC1=O [Example 190, (S)-2-(4-(4-chloro-2,5-difluorophenylsulfonyl)-2-oxopiperazin-1-yl)-3-cyclohexyl-N-(thiazol-2-yl)propanamide]
- EC50: 794 to 1260 nM
- Emax: 74.1 to 97%

Compound: O=C(Nc1nccs1)[C@H](CC1CCCCC1)N1CCN(C(=S)NC2CCCCC2)CC1=O [Example 114, (S)-3-cyclohexyl-2-(4-(cyclohexylcarbamothioyl)-2-oxopiperazin-1-yl)-N-(thiazol-2-yl)propanamide]
- EC50: 1580 to 2510 nM
- Emax: 97.1 to 107%

Compound: O=C(Nc1nccs1)[C@H](CC1CCCCC1)N1CCN(S(=O)(=O)c2cccc(Cl)c2)CC1=O [Example 67, (S)-2-(4-(3-chlorophenylsulfonyl)-2-oxopiperazin-1-yl)-3-cyclohexyl-N-(thiazol-2-yl)propanamide]
- EC50: ≤ 631 nM
- Emax: 108 to 119%

— patent US8173645B2 (Takeda San Diego, Inc., priority 2007, dated 2012)
